Where a name gives a salt, the structure may show the parent alone. Read-outs that look alike come from different tables or passages of the source.
Tests used:
[1] = system: NF-κB pathway in THP-1 dual cells; test: THP-1 Dual reporter assay, NF-κB pathway (SEAP); format: cell-based; settings: Homo sapiens, THP1-Dual, read-out: THP1 Dual EC50 (μM) NFkB
Method: (§1) Compounds of the present invention were tested for their activity using THP-1 dual cells (Invivogen, cat no. thpd-nfis) allowing for simultaneous study of NF-κB pathway and the interferon regulatory factor (IRF) pathway. THP-1 dual cells contain luciferase reporter gene under the control of an ISG54 (interferon-stimulated gene) minimal promoter in conjunction with five interferon-stimulated response elements and a secreted embryonic alkaline phosphatase reporter gene under the control an IFN (interferon)-β minimal promoter fused to five copies of the NF-κB consensus transcriptional response element with three copies of the c-Rel binding site. Following 18 h of stimulation with STING agonist, medium was collected and transferred onto fresh cell culture plate. To verify activity of the IRF pathway, luminescence activity was measured with standard laboratory plate reader immediately after addition 10 μl of the medium to 40 or 50 μl of luminescence reagent (Invivogen, cat. No. rep-qlc2). To verify activity of NF-κB pathway, 10 or 20 μl of the medium was mixed with 80 μl of a detection medium (Invivogen, cat. No. rep-qb2) and incubated for 1 or 2 hours at 37° C. in a humidified atmosphere containing 5% CO2. Next, absorbance at 630 or 655 nm was recorded using standard laboratory plate reader.

[2] = system: interferon regulatory factor (IRF) pathway in THP-1 dual cells; test: THP-1 Dual reporter assay, IRF pathway (luciferase); format: cell-based; settings: Homo sapiens, THP1-Dual, read-out: THP1 Dual EC50 (μM) IRF
Method: as §1

[3] = 18 h stimulation, absorbance at 630 or 655 nm

EC50 [1, 3] [µM]	EC50 ([2]; 18 h stimulation, luminescence) [µM]	SMILES	EC50 ([1]; 18 h) [µM]	EC50 ([2]; 18 h) [µM]
< 1	< 1	Cc1ccc(N2CCC[C@H](N(Cc3ccnc(C)c3)Cc3cn(C4CC4)c4cc(N5CC[C@@H](N(C)C(=O)CCOCCOCCOCCNC(=O)OC(C)(C)C)C5)c(F)cc4c3=O)C2)cn1 [Example 55C, tert-Butyl N-(2-{2-[2-(2-{[(3R)-1-[1-cyclopropyl-6-fluoro-3-({[(3S)-1-(6-methylpyridin-3-yl)piperidin-3-yl][(2-methylpyridin-4-yl)methyl]amino}methyl)-4-oxo-1,4-dihydroquinolin-7-yl]pyrrolidin-3-yl](methyl)carbamoyl}ethoxy)ethoxy]ethoxy}ethyl)carbamate]	–	–
1 to 10	1 to 10	Cc1ccc(N2CCC[C@H](N(Cc3ccnc(C)c3)Cc3cn(C4CC4)c4cc(N5CC[C@@H](N(C)C(=O)CCOCCOCCOCCN)C5)c(F)cc4c3=O)C2)cn1 [Example 55D, 3-{2-[2-(2-aminoethoxy)ethoxy]ethoxy}-N-[(3R)-1-[1-cyclopropyl-6-fluoro-3-({[(3S)-1-(6-methylpyridin-3-yl)piperidin-3-yl][(2-methylpyridin-4-yl)methyl]amino}methyl)-4-oxo-1,4-dihydroquinolin-7-yl]pyrrolidin-3-yl]-N-methylpropanamide formate]	–	–
> 10	> 10	Cc1cc(CN(Cc2cn(C(C)C)c3cc(N4CC[C@@H](O)C4)ccc3c2=O)[C@H]2CCCN(c3cncnc3)C2)ccn1 [Example 59, 7-[(3R)-3-Hydroxypyrrolidin-1-yl]-3-({[(2-methylpyridin-4-yl)methyl][(3S)-1-(pyrimidin-5-yl)piperidin-3-yl]amino}methyl)-1-(propan-2-yl)-1,4-dihydroquinolin-4-one]	–	–
< 1	< 1	Cc1ccc(N2CCC[C@H](N(Cc3ccnc(C)c3)Cc3cn(C4CC4)c4cc(-c5cnn(CCO)c5)c(F)cc4c3=O)C2)cn1 [Example 62, 1-Cyclopropyl-6-fluoro-7-[1-(2-hydroxyethyl)-1H-pyrazol 4-yl]-3-({[(3S)-1-(6-methylpyridin-3-yl)piperidin-3-yl][(2-methylpyridin-4-yl)methyl]amino}methyl)-1,4-dihydroquinolin-4-one]	–	–
< 1	< 1	Cc1ccc(N2CCC[C@H](N(Cc3ccnc(C)c3)Cc3cn(C4CC4)c4cc(-n5cnc(C(N)=O)c5)c(F)cc4c3=O)C2)cn1 [Example 64, 1-[1-Cyclopropyl-6-fluoro-3-({[(3S)-1-(6-methylpyridin-3-yl)piperidin-3-yl][(2-methylpyridin-4-yl)methyl]amino}methyl)-4-oxo-1,4-dihydroquinolin-7-yl]-1H-imidazole-4-carboxamide]	–	–
–	–	COc1cc(CN(Cc2cn(C3CC3)c3cc(N4CC[C@@H](O)C4)c(F)cc3c2=O)[C@H]2CCCN(c3cccnc3)C2)ccn1 [Example 65, 1-cyclopropyl-6-fluoro-7-[(3R)-3-hydroxypyrrolidin-1-yl]-3-({[(2-methoxypyridin-4-yl)methyl][(3S)-1-(pyridin-3-yl)piperidin-3-yl]amino}methyl)-1,4-dihydroquinolin-4-one hydrochloride]	< 1	< 1
1 to 10	1 to 10	Cc1cc(CN(Cc2cn(C(C)C)c3cc(N4CC[C@@H](O)C4)ccc3c2=O)[C@H]2CCCN(c3cn[nH]c3)C2)ccn1 [Example 69, 7-[(3R)-3-hydroxypyrrolidin-1-yl]-3-({[(2-methylpyridin-4-yl)methyl][(3S)-1-(1H-pyrazol-4-yl)piperidin-3-yl]amino}methyl)-1-(propan-2-yl)-1,4-dihydroquinolin-4-one]	–	–
< 1	< 1	Cc1ccc(N2CCC[C@H](N(Cc3ccnc(C)c3)Cc3cn(C4CC4)c4cc(N5CCN(CCO)CC5)c(F)cc4c3=O)C2)cn1 [Example 70, 1-cyclopropyl-6-fluoro-7-[4-(2-hydroxyethyl)piperazin-1-yl]-3-({[(3S)-1-(6-methylpyridin-3-yl)piperidin-3-yl][(2-methylpyridin-4-yl)methyl]amino}methyl)-1,4-dihydroquinolin-4-one]	–	–
< 1	< 1	Cc1ccc(N2CCC[C@H](N(Cc3ccnc(C)c3)Cc3cn(C4CC4)c4cc(N5CCOC(CO)C5)c(F)cc4c3=O)C2)cn1 (stereo partly drawn) [Example 71, 1-cyclopropyl-6-fluoro-7-[2-(hydroxymethyl)morpholin-4-yl]-3-({[(3S)-1-(6-methylpyridin-3-yl)piperidin-3-yl][(2-methylpyridin-4-yl)methyl]amino}methyl)-1,4-dihydroquinolin-4-one]	–	–
1 to 10	1 to 10	Cc1cc(CN(Cc2cn(C3CC3)c3cc(Cl)c(F)cc3c2=O)[C@H]2CCCN(c3cnccc3CO)C2)ccn1 [Example 74, 7-chloro-1-cyclopropyl-6-fluoro-3-({[(3S)-1-[4-(hydroxymethyl)pyridin-3-yl]piperidin-3-yl][(2-methylpyridin-4-yl)methyl]amino}methyl)-1,4-dihydroquinolin-4-one]	–	–
1 to 10	1 to 10	Cc1ccc(N2CCC[C@H](N(Cc3ccnc(C)c3)Cc3cn(C4CC4)c4cc(C5C[C@@H](O)CN5)ccc4c3=O)C2)cn1 (stereo partly drawn) [Example 76, 1-cyclopropyl-7-[(4R)-4-hydroxypyrrolidin-2-yl]-3-({[(3S)-1-(6-methylpyridin-3-yl)piperidin-3-yl][(2-methylpyridin-4-yl)methyl]amino}methyl)-1,4-dihydroquinolin-4-one]	–	–
1 to 10	1 to 10	Cc1ccc(N2CCC[C@H](N(Cc3ccnc(C)c3)Cc3cn(CC(N)=O)c4ccccc4c3=O)C2)cn1 [Example 77, 2-[3-({[(3S)-1-(6-methylpyridin-3-yl)piperidin-3-yl][(2-methylpyridin-4-yl)methyl]amino}methyl)-4-oxo-1,4-dihydroquinolin-1-yl]acetamide]	–	–
< 1	< 1	Cc1ccc(N2CCC[C@H](N(Cc3ccnc(C)c3)Cc3cn(C4CC4)c4cc(N5CCC(CO)C5)c(F)cc4c3=O)C2)cn1 (stereo partly drawn) [Example 79, 1-cyclopropyl-6-fluoro-7-[3-(hydroxymethyl)pyrrolidin-1-yl]-3-({[(3S)-1-(6-methylpyridin-3-yl)piperidin-3-yl][(2-methylpyridin-4-yl)methyl]amino}methyl)-1,4-dihydroquinolin-4-one hydrochloride]	–	–
< 1	< 1	Cc1cnc(N2CCC[C@H](N(Cc3ccnc(C)c3)Cc3cn(C4CC4)c4cc(N5CCC[C@H](O)C5)c(F)cc4c3=O)C2)cn1 [Example 81, 1-cyclopropyl-6-fluoro-7-[(3S)-3-hydroxypiperidin-1-yl]-3-({[(3S)-1-(5-methylpyrazin-2-yl)piperidin-3-yl][(2-methylpyridin-4-yl)methyl]amino}methyl)-1,4-dihydroquinolin-4-one]	–	–
< 1	< 1	Cc1cc(CN(Cc2cn(C3CC3)c3cc(OCCO)c(F)cc3c2=O)[C@H]2CCCN(c3cnc(C)c(F)c3)C2)ccn1 [Example 83, 1-cyclopropyl-6-fluoro-3-({[(3S)-1-(5-fluoro-6-methylpyridin-3-yl)piperidin-3-yl][(2-methylpyridin-4-yl)methyl]amino}methyl)-7-(2-hydroxyethoxy)-1,4-dihydroquinolin-4-one]	–	–
–	–	Cc1cc(CN(Cc2cn(C3CC3)c3cc(OCCO)c(F)cc3c2=O)[C@H]2CCCN(c3cccnc3)C2)ccn1 [Example 84, 1-cyclopropyl-6-fluoro-7-(2-hydroxyethoxy)-3-({[(2-methylpyridin-4-yl)methyl][(3S)-1-(pyridin-3-yl)piperidin-3-yl]amino}methyl)-1,4-dihydroquinolin-4-one hydrochloride]	< 1	< 1

SMILES	EC50 [1, 3] [µM]	EC50 ([2]; 18 h stimulation, luminescence) [µM]	EC50 ([1]; 18 h) [µM]	EC50 ([2]; 18 h) [µM]
C#CCOCCOCCOCCOCCOCCC(=O)Nc1ccc(COC(=O)N(C)[C@H]2CCN(c3cc4c(cc3F)c(=O)c(CN(Cc3ccnc(C)c3)[C@H]3CCCN(c5ccc(C)nc5)C3)cn4C3CC3)C2)cc1 [Example 58A, [4-(4,7,10,13,16-pentaoxanonadec-18-ynamido)phenyl]methyl N-[(3S)-1-[1-cyclopropyl-6-fluoro-3-({[(3S)-1-(6-methylpyridin-3-yl)piperidin-3-yl][(2-methylpyridin-4-yl)methyl]amino}methyl)-4-oxo-1,4-dihydroquinolin-7-yl]pyrrolidin-3-yl]-N-methylcarbamate]	< 1	< 1	–	–
Cc1ccc(N2CCC[C@H](N(Cc3ccnc(C)c3)Cc3cn(C4CC4)c4cc(N5CCC6C(CCN6C(=O)OCc6ccc(NC(=O)[C@H](CCCNC(N)=O)NC(=O)[C@@H](NC(=O)CCOCCOCCOCCN=[N+]=[N-])C(C)C)cc6)C5)c(F)cc4c3=O)C2)cn1 (stereo partly drawn) [Example 68A, {4-[(2S)-2-[(2S)-2-(3-{2-[2-(2-azidoethoxy)ethoxy]ethoxy}propanamido)-3-methyl-butanamido]-5-(carbamoylamino)pentanamido]phenyl}methyl 5-[1-cyclopropyl-6-fluoro-3-({[(3S)-1-(6-methylpyridin-3-yl)piperidin-3-yl][(2-methylpyridin-4-yl)methyl]amino}methyl)-4-oxo-1,4-dihydroquinolin-7-yl]-octahydro-1H-pyrrolo[3,2-c]pyridine-1-carboxylate]	> 10	1 to 10	–	–

From patent US12643879B2, “Functionalized heterocyclic compounds as modulators of stimulator of interferon genes (STING)” (RYVU THERAPEUTICS S.A., priority 2019, dated 2026)
